Experiments:
Test in all cases: KINOMEscan kinase binding assay (Eurofins/DiscoveRx), % Ctrl
Details in all cases: 1 μM
[1] = biological target: T1, kinases (Homo sapiens, UniProt P00533, L858R/T790M)
T1 construct: purchased Eurofins/DiscoveRx; host or cells: E. coli BL21-derived host (T7 phage display) for most kinases; HEK-293 for the rest
In short: (§1)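 Read-out is qPCR of kinase eluted from ligand-coated streptavidin beads after 1 h room-temperature competition with test compound. Values are % Ctrl at the tested concentration, lower meaning tighter binding.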

[2] = biological target: T2, kinases (Homo sapiens, UniProt P00533, L858R)
T2 construct: purchased Eurofins/DiscoveRx; host or cells: E. coli BL21-derived host (T7 phage display) for most kinases; HEK-293 for the rest
In short: as §1

[3] = biological target: T3, kinases (Homo sapiens, UniProt P36888, N841I)
T3 construct: purchased Eurofins/DiscoveRx; host or cells: E. coli BL21-derived host (T7 phage display) for most kinases; HEK-293 for the rest
T3 sequence (P36888 27-993 N841I): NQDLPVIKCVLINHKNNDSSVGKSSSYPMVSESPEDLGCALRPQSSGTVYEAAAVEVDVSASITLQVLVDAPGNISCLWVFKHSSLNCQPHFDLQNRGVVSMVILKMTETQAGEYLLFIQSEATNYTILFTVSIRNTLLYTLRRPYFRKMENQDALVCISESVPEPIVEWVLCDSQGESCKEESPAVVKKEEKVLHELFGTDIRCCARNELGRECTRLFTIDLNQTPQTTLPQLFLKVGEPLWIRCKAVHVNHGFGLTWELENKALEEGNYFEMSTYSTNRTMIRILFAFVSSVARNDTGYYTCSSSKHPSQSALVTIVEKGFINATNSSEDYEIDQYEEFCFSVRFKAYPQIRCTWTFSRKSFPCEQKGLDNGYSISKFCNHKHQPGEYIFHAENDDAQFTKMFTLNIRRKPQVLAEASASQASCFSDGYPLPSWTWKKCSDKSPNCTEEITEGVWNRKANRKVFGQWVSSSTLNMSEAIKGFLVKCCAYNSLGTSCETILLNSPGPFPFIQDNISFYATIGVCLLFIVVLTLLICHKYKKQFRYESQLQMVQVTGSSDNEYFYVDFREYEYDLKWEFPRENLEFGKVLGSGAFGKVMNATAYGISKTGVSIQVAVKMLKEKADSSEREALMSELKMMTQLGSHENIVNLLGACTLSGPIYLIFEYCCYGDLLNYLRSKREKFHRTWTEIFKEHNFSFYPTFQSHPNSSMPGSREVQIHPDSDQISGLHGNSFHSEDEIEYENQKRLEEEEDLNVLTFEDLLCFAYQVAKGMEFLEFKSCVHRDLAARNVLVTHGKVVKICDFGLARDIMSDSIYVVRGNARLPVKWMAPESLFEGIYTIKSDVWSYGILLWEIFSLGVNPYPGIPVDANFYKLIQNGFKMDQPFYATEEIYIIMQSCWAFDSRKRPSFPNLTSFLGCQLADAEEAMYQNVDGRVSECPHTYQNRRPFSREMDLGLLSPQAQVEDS
In short: as §1

[4] = biological target: T4, kinases (Homo sapiens, UniProt P10721, D816H)
T4 construct: purchased Eurofins/DiscoveRx; host or cells: E. coli BL21-derived host (T7 phage display) for most kinases; HEK-293 for the rest
In short: as §1

[5] = biological target: T5, kinases (Homo sapiens, UniProt P00519, Y253F)
T5 construct: purchased Eurofins/DiscoveRx; host or cells: E. coli BL21-derived host (T7 phage display) for most kinases; HEK-293 for the rest
In short: as §1

[6] = biological target: T6, kinases (Homo sapiens, UniProt P35916)
T6 construct: purchased Eurofins/DiscoveRx; host or cells: E. coli BL21-derived host (T7 phage display) for most kinases; HEK-293 for the rest
In short: as §1

[7] = biological target: T7, kinases (Homo sapiens, UniProt P00519, F317L)
T7 construct: purchased Eurofins/DiscoveRx; host or cells: E. coli BL21-derived host (T7 phage display) for most kinases; HEK-293 for the rest
In short: as §1

[8] = biological target: T8, kinases (Homo sapiens, UniProt P00519)
T8 construct: purchased Eurofins/DiscoveRx; host or cells: E. coli BL21-derived host (T7 phage display) for most kinases; HEK-293 for the rest
In short: as §1

[9] = biological target: T9, kinases (Homo sapiens, UniProt P00533, DEL746-750)
T9 construct: purchased Eurofins/DiscoveRx; host or cells: E. coli BL21-derived host (T7 phage display) for most kinases; HEK-293 for the rest
In short: as §1

[10] = biological target: T10, kinases (Homo sapiens, UniProt P00533, DEL752-759)
T10 construct: purchased Eurofins/DiscoveRx; host or cells: E. coli BL21-derived host (T7 phage display) for most kinases; HEK-293 for the rest
In short: as §1

T6 sequence (P35916 25-1363): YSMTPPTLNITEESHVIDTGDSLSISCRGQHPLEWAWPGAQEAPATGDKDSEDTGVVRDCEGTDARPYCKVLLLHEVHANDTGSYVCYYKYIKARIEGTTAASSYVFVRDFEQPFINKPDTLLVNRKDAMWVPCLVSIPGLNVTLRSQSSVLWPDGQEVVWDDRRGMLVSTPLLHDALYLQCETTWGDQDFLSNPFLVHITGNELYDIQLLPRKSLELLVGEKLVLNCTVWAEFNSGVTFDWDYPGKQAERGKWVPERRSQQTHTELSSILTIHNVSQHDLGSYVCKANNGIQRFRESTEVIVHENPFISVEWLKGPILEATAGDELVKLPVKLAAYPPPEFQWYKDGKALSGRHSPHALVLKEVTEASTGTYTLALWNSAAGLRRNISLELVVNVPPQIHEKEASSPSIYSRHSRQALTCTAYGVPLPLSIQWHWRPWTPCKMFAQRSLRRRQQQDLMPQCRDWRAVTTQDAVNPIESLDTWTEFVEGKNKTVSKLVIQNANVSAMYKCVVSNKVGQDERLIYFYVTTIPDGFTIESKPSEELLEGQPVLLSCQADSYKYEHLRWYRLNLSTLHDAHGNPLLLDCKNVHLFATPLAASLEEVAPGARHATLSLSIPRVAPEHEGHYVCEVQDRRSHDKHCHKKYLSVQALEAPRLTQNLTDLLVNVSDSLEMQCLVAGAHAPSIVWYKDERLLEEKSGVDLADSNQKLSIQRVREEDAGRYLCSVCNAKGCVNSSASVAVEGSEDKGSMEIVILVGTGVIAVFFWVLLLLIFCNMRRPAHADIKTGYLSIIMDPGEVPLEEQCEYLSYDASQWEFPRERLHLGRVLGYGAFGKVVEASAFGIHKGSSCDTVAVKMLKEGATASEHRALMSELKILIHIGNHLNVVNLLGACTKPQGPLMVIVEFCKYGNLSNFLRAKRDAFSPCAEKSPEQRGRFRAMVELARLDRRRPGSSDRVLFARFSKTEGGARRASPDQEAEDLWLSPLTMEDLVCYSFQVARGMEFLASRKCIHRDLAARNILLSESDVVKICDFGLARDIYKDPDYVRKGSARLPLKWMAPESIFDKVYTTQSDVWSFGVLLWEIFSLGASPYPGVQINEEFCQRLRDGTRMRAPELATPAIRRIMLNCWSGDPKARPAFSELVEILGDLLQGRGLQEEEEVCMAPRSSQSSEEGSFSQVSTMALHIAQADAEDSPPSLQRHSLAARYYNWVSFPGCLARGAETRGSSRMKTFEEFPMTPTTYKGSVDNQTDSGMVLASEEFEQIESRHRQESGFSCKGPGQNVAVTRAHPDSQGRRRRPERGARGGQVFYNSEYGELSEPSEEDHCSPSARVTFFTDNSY
T4 sequence (P10721 26-976 D816H): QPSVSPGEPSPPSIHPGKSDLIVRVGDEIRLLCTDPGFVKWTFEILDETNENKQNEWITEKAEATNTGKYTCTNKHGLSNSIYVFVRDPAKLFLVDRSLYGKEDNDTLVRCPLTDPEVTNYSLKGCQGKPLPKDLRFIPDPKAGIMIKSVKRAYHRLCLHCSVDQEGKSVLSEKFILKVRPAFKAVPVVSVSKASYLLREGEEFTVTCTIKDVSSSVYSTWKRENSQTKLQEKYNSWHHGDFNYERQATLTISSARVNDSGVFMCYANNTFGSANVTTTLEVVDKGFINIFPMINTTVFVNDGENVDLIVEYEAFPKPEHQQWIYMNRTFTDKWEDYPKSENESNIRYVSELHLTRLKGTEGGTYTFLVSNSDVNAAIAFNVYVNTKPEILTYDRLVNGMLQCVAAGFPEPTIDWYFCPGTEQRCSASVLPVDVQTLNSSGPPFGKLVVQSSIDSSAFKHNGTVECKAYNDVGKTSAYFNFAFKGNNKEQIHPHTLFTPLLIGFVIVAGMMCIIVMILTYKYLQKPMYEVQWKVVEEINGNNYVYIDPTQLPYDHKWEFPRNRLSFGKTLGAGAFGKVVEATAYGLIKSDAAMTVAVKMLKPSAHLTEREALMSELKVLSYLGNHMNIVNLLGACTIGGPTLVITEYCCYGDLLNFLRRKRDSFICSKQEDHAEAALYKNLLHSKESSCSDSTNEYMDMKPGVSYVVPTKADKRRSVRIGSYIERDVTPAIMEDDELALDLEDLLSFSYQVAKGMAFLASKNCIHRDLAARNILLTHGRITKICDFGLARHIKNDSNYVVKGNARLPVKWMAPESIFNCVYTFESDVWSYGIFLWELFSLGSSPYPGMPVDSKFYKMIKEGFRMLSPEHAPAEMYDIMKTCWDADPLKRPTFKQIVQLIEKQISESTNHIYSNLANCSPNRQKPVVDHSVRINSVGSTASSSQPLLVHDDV

| Compound | % Ctrl, EGFR(L858R, T790M) ([1]; EGFR(L858R, T790M)) | % Ctrl, EGFR(L858R) ([2]; EGFR(L858R)) | % Ctrl, FLT3(N841I) ([3]; FLT3(N841I)) | % Ctrl, KIT(D816H) ([4]; KIT(D816H)) | % Ctrl, ABL1(Y253F)-phosphorylated ([5]; ABL1(Y253F)-phosphorylated) | % Ctrl, FLT4 ([6]; FLT4) | % Ctrl, ABL1(F317L)-nonphosphorylated ([7]; ABL1(F317L)-nonphosphorylated) | % Ctrl, ABL1(F317L)-phosphorylated ([7]; ABL1(F317L)-phosphorylated) | % Ctrl, ABL1-nonphosphorylated ([8]; ABL1-nonphosphorylated) | % Ctrl, ABL1-phosphorylated ([8]; ABL1-phosphorylated) | % Ctrl, EGFR(E746-A750del) ([9]; EGFR(E746-A750del)) | % Ctrl, EGFR(S752-I759del) ([10]; EGFR(S752-I759del)) | other results |
| --- | --- | --- | --- | --- | --- | --- | --- | --- | --- | --- | --- | --- | --- |
| Cc1cc2c([nH]1)/C=C1\C(=O)Nc3cc(Cl)c(cc31)OCCOCCN(C)C2=O [Ex. 131, [16a(17)Z]-19-chloro-2,5-dimethyl-6,7,9,10-tetrahydro-1H-12,14-(ethanediylidene)dipyrrolo[3,2-i:3′,4′-l][1,4,7]dioxazacyclopentadecine-4,16(5H,15H)-dione] | 35 % Ctrl | 56 % Ctrl | 0 % Ctrl | 6.2 % Ctrl | 0 % Ctrl | 0 % Ctrl | 0 % Ctrl | 1.3 % Ctrl | 0 % Ctrl | 0 % Ctrl | 11 % Ctrl | 70 % Ctrl |  |
| Cc1cc2c([nH]1)/C=C1\C(=O)Nc3cc(Cl)c(cc31)OCCO[C@@H](C(=O)NC1CNC1)CN(C)C2=O [Ex. 133, [7R,16a(17)Z]-N-(azetidin-3-yl)-19-chloro-2,5-dimethyl-4,16-dioxo-4,5,6,7,9,10,15,16-octahydro-1H-12,14-(ethanediylidene)dipyrrolo[3,2-i:3′,4′-l][1,4,7]dioxazacyclopentadecine-7-carboxamide] | 95 % Ctrl | 95 % Ctrl | 19 % Ctrl | 43 % Ctrl | 57 % Ctrl | 98 % Ctrl | 77 % Ctrl | 88 % Ctrl | 65 % Ctrl | 68 % Ctrl | 100 % Ctrl | 90 % Ctrl |  |
| Cc1cc2c([nH]1)/C=C1\C(=O)Nc3cc(Cl)c(cc31)OCCO[C@@H](C(=O)NC1CCNCC1)CN(C)C2=O [Ex. 134, [7R,16a(17)Z]-19-chloro-2,5-dimethyl-4,16-dioxo-N-(piperidin-4-yl)-4,5,6,7,9,10,15,16-octahydro-1H-12,14-(ethaneidylidene)dipyrrolo[3,2-i:3′,4′-l][1,4,7]dioxazacyclopentadecine-7-carboxamide] | 92 % Ctrl | 89 % Ctrl | 26 % Ctrl | 56 % Ctrl | 32 % Ctrl | 90 % Ctrl | 62 % Ctrl | 57 % Ctrl | 46 % Ctrl | 38 % Ctrl | 89 % Ctrl | 88 % Ctrl |  |
| CNC(=O)[C@H]1CN(C)C(=O)c2cc(C)[nH]c2/C=C2\C(=O)Nc3cc(Cl)c(cc32)OCCO1 [Ex. 135, [7R,16a(17)Z]-19-chloro-N,2,5-trimethyl-4,16-dioxo-4,5,6,7,9,10,15,16-octahydro-1H-12,14-(ethanediylidene)dipyrrolo[3,2-i:3′,4′-l][1,4,7]dioxazacyclopentadecine-7-carboxamide] | 93 % Ctrl | 93 % Ctrl | 41 % Ctrl | 80 % Ctrl | 55 % Ctrl | 100 % Ctrl | 78 % Ctrl | 64 % Ctrl | 33 % Ctrl | 58 % Ctrl | 99 % Ctrl | 92 % Ctrl |  |
| Cc1cc2c([nH]1)/C=C1\C(=O)Nc3cc(Cl)c(cc31)OCCO[C@@H](C(=O)N[C@@H]1CCNC1)CN(C)C2=O [Ex. 136, [7R,16a(17)Z]-19-chloro-2,5-dimethyl-4,16-dioxo-N-[(3R)-pyrrolidin-3-yl]-4,5,6,7,9,10,15,16-octahydro-1H-12,14-(ethanediylidene)dipyrrolo[3,2-i:3′,4′-l][1,4,7]dioxazacyclopentadecine-7-carboxamide] | 93 % Ctrl | 90 % Ctrl | 14 % Ctrl | 48 % Ctrl | 16 % Ctrl | 100 % Ctrl | 59 % Ctrl | 44 % Ctrl | 36 % Ctrl | 25 % Ctrl | 76 % Ctrl | 95 % Ctrl |  |
| Cc1cc2c([nH]1)/C=C1\C(=O)Nc3cc(Cl)c(cc31)OCCO[C@@H](C(=O)N(C)C)CN(C)C2=O [Ex. 137, [7R,16a(17)Z]-19-chloro-N,N,2,5-tetramethyl-4,16-dioxo-4,5,6,7,9,10,15,16-octahydro-1H-12,14-(ethanediylidene)dipyrrolo[3,2-i:3′,4′-l][1,4,7]dioxazacyclopentadecine-7-carboxamide] | 93 % Ctrl | 99 % Ctrl | 49 % Ctrl | 74 % Ctrl | 60 % Ctrl | 95 % Ctrl | 76 % Ctrl | 67 % Ctrl | 43 % Ctrl | 61 % Ctrl | 98 % Ctrl | 98 % Ctrl |  |
| Cc1cc2c([nH]1)/C=C1\C(=O)Nc3cc(Cl)c(cc31)OCCO[C@@H](C(=O)N1CCN(C)CC1)CN(C)C2=O [Ex. 138, [7R,16a(17)Z]-19-chloro-2,5-dimethyl-7-(4-methylpipearazine-1-carbonyl)-6,7,9,10-tetrahydro-1H-12,14-(ethanediylidene)dipyrrolo[3,2-i:3′,4′-l][1,4,7]dioxazacyclopentadecine-4,16(5H,15H)-dione] |  |  |  |  |  |  |  |  |  |  |  |  | % Ctrl, EGFR(L858R, T790M) ([1]; target EGFR(L858R, T790M)): 82 % Ctrl; % Ctrl, EGFR(L858R) ([2]; target EGFR(L858R)): 78 % Ctrl; % Ctrl, FLT3(N841I) ([3]; target FLT3(N841I)): 68 % Ctrl; % Ctrl, KIT(D816H) ([4]; target KIT(D816H)): 82 % Ctrl; % Ctrl, ABL1(Y253F)-phosphorylated ([5]; target ABL1(Y253F)-phosphorylated): 91 % Ctrl; % Ctrl, FLT4 ([6]; target FLT4): 97 % Ctrl; % Ctrl, ABL1(F317L)-nonphosphorylated ([7]; target ABL1(F317L)-nonphosphorylated): 69 % Ctrl; % Ctrl, ABL1(F317L)-phosphorylated ([7]; target ABL1(F317L)-phosphorylated): 75 % Ctrl; % Ctrl, ABL1-nonphosphorylated ([8]; target ABL1-nonphosphorylated): 79 % Ctrl; % Ctrl, ABL1-phosphorylated ([8]; target ABL1-phosphorylated): 100 % Ctrl; % Ctrl, EGFR(E746-A750del) ([9]; target EGFR(E746-A750del)): 78 % Ctrl; % Ctrl, EGFR(S752-I759del) ([10]; target EGFR(S752-I759del)): 92 % Ctrl |
